Data on four molecules can be found in patent publication US6662040B1, “Methods of photoacoustic imaging” (Amersham Health AS, priority 1997, dated 2003).

The conditions of series [1]: cited from earlier work.
The test system of a further series is HT-29 tumors. In words: Comparative biodistribution in mice containing HT-29 tumors. Format: in vivo, female immunodeficient mice. The note with it: for detection in the tumor: PBS solution. From the text: FIG. 1a is a graph of comparative biodistribution data of contrast agent NC100448 versus indocyanine green as control in female immunodeficient mice containing HT-29 tumors at one hour post intravenous injection of phosphate buffered saline solutions of each.
FIG. 1b is a graph of comparative biodistribution data of contrast agent NC100448 versus indocyanine green as control in female immunodeficient mice containing HT-29 tumors at three hours post intravenous injection of phosphate buffered saline solutions of each. […] Relative to FIG. 1a, the concentration of the contrast agent in the tumor has increased while the concentration in the blood has decreased.
Biodistribution results are presented in FIGS. 1a (one hour post-dosing) and 1b (three hours post-dosing).

The conditions of series [2]: not told.
Method: Monochromatic X-rays with a photon energy of 20 to 30 keV are obtained with a double crystal monochromator using white X-rays from a sychrotron. The beam intensity is modulated by a rotating lead plate chopper with a frequency of 10 Hz. The sample chamber is a cylindrical cell with a volume of about 0.5 ml in a saline bath which has two beryllium windows. The photon flux into the sample chamber is measured with an ionization chamber placed in front.
The amplitude of the photoacoustic signal, normalized to the photon flux, is measured when the sample chamber contains the saline solution and when it contains a barium sulfate suspension.
The amplitude of the photoacoustic signal, normalized to the photon flux, is measured when the sample chamber contains the saline solution and when it contains a solution of iodixanol in PBS.
A short description of series [3]: Photoacoustic imaging with infrared radiation in mice. Format: in vivo, hairless, immunocompetent mice. The note with it: 100 μl i.v. tail vein of 4.6 mg/ml in PBS, 750 nm alexandrite laser, immediately following injection.
Method: The dry contrast agent (4.6 mg) was dissolved immediately before use in 1 ml phosphate buffered saline (Delbecco's buffer). The solution was doubly filtered through a syringe filter with a pore size of 0.45 μm and then was stored in the dark before injection.
The test animals were hairless, immunocompetent mice weighing about 23 g, which were anaesthetized I. m. with 5 μl xylazine (Rompun) and 10 μl ketamine prior to the measurements.
The irradiating light was produced by an alexandrite laser operating at a frequency of 750 nm. The light beam was attenuated with a neutral density filter so that the energy imparted by each pulse to the skin of the mice was less than 50 millijoules.
For imaging, the mouse rested on the lithium niobate acoustic transducer. The photoacoustic signal was detected after it passed to the opposite side of the mouse from incident radiation. The signal was detected after it passed through the body of the mouse to the opposite side from the point of irradiation.
Before injection of the contrast agent, the first mouse was positioned on its back on the transducer so as to maximize the internal signal when the skin above the liver was irradiated. […] The injected dose was 100 μl injected intravenously into the tail vein with a 26 gauge needle. Immediately following injection, the mouse was again positioned for a maximum signal.
Setting [4] is: one hour post intravenous injection.
The mark [5] stands for this setting: three hours post intravenous injection.

Consider `Oc1ccc2ccccc2c1N=Nc1ccc(N=Nc2ccccc2)cc1` [Sudan III], for which, in series [1] (sesame oil), the “solubility in sesame oil” value was “soluble in sesame oil”. Also, the solubility in water result in series [1] (water) is recorded as “very water insoluble”.

As to `CC1(C)C(/C=C/C=C/C=C/C=C2\N(CCCCS(=O)(=O)O)c3ccc4ccccc4c3C2(C)C)=[N+](CCCCS(=O)(=O)[O-])c2ccc3ccccc3c21` [indocyanine green], the “detection in the tumor” value with HT-29 tumors (setting [4]) and in the series on HT-29 tumors (setting [5]) was “negligibly detected” in each case.

With `CC(=O)N(CC(O)CN(C(C)=O)c1c(I)c(C(=O)NCC(O)CO)c(I)c(C(=O)NCC(O)CO)c1I)c1c(I)c(C(=O)NCC(O)CO)c(I)c(C(=O)NCC(O)CO)c1I` (stereo not shown) [iodixanol], the “amplitude of the photoacoustic signal normalized to photon flux, versus saline solution” value in series [2] is given as “larger”.

On to “bis(thioether) 2:1 dye:polymer Reaction Product Between 2-[2-[2-chloro-3-[[1,3-dihydro-1,1,-dimethyl-3-(3-sulfopropyl)-2H-benz [e]indol-2-ylidene]ethylidene]-5-(ethoxycarbonyl)-1-cyclohexen-1-yl]ethenyl]-1,1-dimethyl-3-(3-sulfopropyl)-1H-benz[e]indolium, Inner Salt, Sodium Salt and Disodium PEG3,4000-α,ω-dithiolate [NC100448]”, for which the “maximum detected signal from the blood vessels of the liver versus prior to injection” value in series [3] is 5 to 10 times larger. In addition, the “detection in the tumor” value with HT-29 tumors (setting [4]) is recorded as “detected in the tumor”. Further, in the series with HT-29 tumors (setting [5]), the “concentration in the blood relative to FIG. 1a (one hour)” value is reported as “decreased”, the “concentration in the tumor relative to FIG. 1a (one hour)” value is “increased” and the “detection in the tumor” value is reported as “detected in the tumor”.
